Data: patent publication US20130217678A1, “PHARMACEUTICAL AGENT COMPRISING QUINOLONE COMPOUND” (OTSUKA PHARMACEUTICAL CO., LTD., priority 2008, published 2013)

Row | Structure (SMILES) | melting point
1 | CCCOc1cccc2c(=O)c(-c3c(F)cccc3Cl)c[nH]c12 [Example 30, 3-(2-Chloro-6-fluorophenyl)-8-propoxy-1H-quinolin-4-one] | 250 °C
2 | COc1ccc(-c2c[nH]c3c(C(=O)N4CCCC4)ccc(C)c3c2=O)cc1 [Example 90, 3-(4-Methoxyphenyl)-5-methyl-8-(pyrrolidine-1-carbonyl)-1H-quinolin-4-one] | 193 to 195 °C
3 | CCCOc1ccc(C)c2c(=O)c(-c3cccs3)c[nH]c12 [Example 61, 5-Methyl-8-propoxy-3-thiophen-2-yl-1H-quinolin-4-one] | 104 to 105 °C
4 | COc1ccc(-c2c[nH]c3c(OCC(C)C)ccc(OC)c3c2=O)cc1 [Example 47, 8-Isobutoxy-5-methoxy-3-(4-methoxyphenyl)-1H-quinolin-4-one] | 242 to 244 °C
5 | COc1ccc(-c2c[nH]c3c(N(C)C4CCCCC4)ccc(C)c3c2=O)cc1 [Example 99, 8-(N-Cyclohexyl-N-methylamino)-3-(4-methoxyphenyl)-5-methyl-1H-quinolin-4-one] | 186 to 187 °C
6 | CCCOc1cccc2c(=O)c(-c3ccc(Cl)cc3Cl)c[nH]c12 [Example 27, 3-(2,4-Dichlorophenyl)-8-propoxy-1H-quinolin-4-one] | 189 °C
7 | COc1ccc(OC2CCCC2)c2[nH]cc(-c3ccc(Cl)cc3Cl)c(=O)c12 [Example 104, 8-Cyclopentyloxy-3-(2,4-dichlorophenyl)-5-methoxy-1H-quinolin-4-one] | 266 to 268 °C
8 | CCCOc1cccc2c(=O)c(-c3ccncc3)c[nH]c12 [Example 15, 8-Propoxy-3-pylidine-4-yl-1H-quinolin-4-one] | 259 to 260 °C
9 | CCCOc1cccc2c(=O)c(-c3ccc(OC)c(OC)c3)c[nH]c12 [Example 14, 3-(3,4-Dimethoxyphenyl)-8-propoxy-1H-quinolin-4-one] | 210 to 211 °C
10 | CCCOc1cccc2c(=O)c(-c3ccccc3Br)c[nH]c12 [Example 54, 3-(2-Bromophenyl)-8-propoxy-1H-quinolin-4-one] | 200 to 203 °C
11 | O=c1c(-c2ccc(Cl)cc2Cl)c[nH]c2c(OC3CCCC3)ccc(O)c12 [Example 106, 8-Cyclopentyloxy-3-(2,4-dichlorophenyl)-5-hydroxy-1H-quinolin-4-one] | 154 to 155 °C
12 | CCCOc1ccc(C)c2c(=O)c(-c3ccccc3C)c[nH]c12 [Example 50, 5-Methyl-8-propoxy-3-o-tolyl-1H-quinolin-4-one] | 201 to 202 °C
13 | CCCOc1cccc2c(=O)c(-c3cccc(Br)c3)c[nH]c12 [Example 55, 3-(3-Bromophenyl)-8-propoxy-1H-quinolin-4-one] | 107 to 108 °C
14 | CCCOc1ccc(C)c2c(=O)c(-c3cccc(OC)c3OC)c[nH]c12 [Example 53, 3-(2,3-Dimethoxyphenyl)-5-methyl-8-propoxy-1H-quinolin-4-one] | 170 to 171 °C
15 | COc1ccc(OCC2CC2)c2[nH]cc(-c3ccc(Cl)cc3Cl)c(=O)c12 [Example 105, 8-Cyclopropylmethoxy-3-(2,4-dichlorophenyl)-5-methoxy-1H-quinolin-4-one] | 254 to 256 °C
16 | O=c1c(-c2ccc(Cl)cc2Cl)c[nH]c2c(OCC3CC3)ccc(O)c12 [Example 107, 8-Cyclopropylmethoxy-3-(2,4-dichlorophenyl)-5-hydroxy-1H-quinolin-4-one] | 163 to 165 °C
17 | COc1ccc(-c2c[nH]c3c(N4CCCCCC4)ccc(C)c3c2=O)cc1 [Example 84, 8-Azepan-1-yl-3-(4-methoxyphenyl)-5-methyl-1H-quinolin-4-one] | 249 to 250 °C
18 | CCCOc1cccc2c(=O)c(-c3ccc(F)cc3Cl)c[nH]c12 [Example 29, 3-(2-Chloro-4-fluorophenyl)-8-propoxy-1H-quinolin-4-one] | 230 °C
19 | CCCOc1cccc2c(=O)c(-c3c(F)c(F)c(F)c(F)c3F)c[nH]c12 [Example 33, 3-Pentafluorophenyl-8-propoxy-1H-quinolin-4-one] | 160 °C
20 | CCCOc1ccc(C)c2c(=O)c(-c3sc4ccccc4c3C)c[nH]c12 [Example 66, 5-Methyl-3-(3-methylbenzo[b]thiophen-2-yl)-8-propoxy-1H-quinolin-4-one] | 90 to 92 °C
21 | CCCOc1ccc(C)c2c(=O)c(-c3ccc(OC)cc3)cn(CC3CC3)c12 [Example 92, 1-Cyclopropylmethyl-3-(4-methoxyphenyl)-5-methyl-8-propoxy-1H-quinolin-4-one] | 100 to 101 °C
22 | COc1ccc(-c2c[nH]c3c(N(C)C(C)C)ccc(C)c3c2=O)cc1 [Example 103, 8-(N-Isopropyl-N-methylamino)-3-(4-methoxyphenyl)-5-methyl-1H-quinolin-4-one] | 186 to 187 °C
23 | CCCOc1ccc(C)c2c(=O)c(-c3ccc(Cl)cc3Cl)c[nH]c12 [Example 57, 3-(2,4-Dichlorophenyl)-5-methyl-8-propoxy-1H-quinolin-4-one] | 103 to 106 °C

Results, then the compound that gave them:

Row | melting point | Structure (SMILES)
24 | 169 to 170 °C | CCCOc1ccc(CC)c2c(=O)c(-c3ccc(OC)cc3)c[nH]c12 [Example 49, 5-Ethyl-3-(4-methoxyphenyl)-8-propoxy-1H-quinolin-4-one]
25 | 213 to 215 °C | COc1ccc(-c2c[nH]c3c(OC4CCCC4)ccc(OC)c3c2=O)cc1 [Example 93, 8-Cyclopentyloxy-5-methoxy-3-(4-methoxyphenyl)-1H-quinolin-4-one]
26 | 117 to 119 °C | CCOc1ccc(OC)c2c(=O)c(-c3ccc(OC)cc3)c[nH]c12 [Example 45, 8-Ethoxy-5-methoxy-3-(4-methoxyphenyl)-1H-quinolin-4-one]
27 | 189 to 190 °C | COc1ccc(-c2c[nH]c3c(-c4ccsc4)ccc(C)c3c2=O)cc1 [Example 97, 3-(4-Methoxyphenyl)-5-methyl-8-thiophen-3-yl-1H-quinolin-4-one]
28 | 156 to 158 °C | CCCOc1ccc(C)c2[nH]cc(-c3ccc(OC)cc3)c(=O)c12 [Example 80, 3-(4-Methoxyphenyl)-8-methyl-5-propoxy-1H-quinolin-4-one]
29 | 111 to 113 °C | COc1ccc(-c2c[nH]c3c(N(C)CC(C)C)ccc(C)c3c2=O)cc1 [Example 102, 8-(N-Isobutyl-N-methyl-amino)-3-(4-methoxyphenyl)-5-methyl-1H-quinolin-4-one]
30 | 161 to 162 °C | CCCOc1cc(C)cc2c(=O)c(-c3ccc(OC)cc3)c[nH]c12 [Example 36, 3-(4-Methoxyphenyl)-6-methyl-8-propoxy-1H-quinolin-4-one]
31 | 258 to 260 °C | CCc1nccn1-c1ccc(C)c2c(=O)c(-c3ccc(OC)cc3)c[nH]c12 [Example 71, 8-(2-Ethylimidazol-1-yl)-3-(4-methoxyphenyl)-5-methyl-1H-quinolin-4-one]
32 | 90 to 93 °C | COCCN(C)c1ccc(C)c2c(=O)c(-c3ccc(OC)cc3)c[nH]c12.Cl
33 | 236 to 237 °C | CCCOc1cc(-n2ccnc2)cc2c(=O)c(-c3ccc(OC)cc3)c[nH]c12 [Example 85, 6-Imidazol-1-yl-3-(4-methoxyphenyl)-8-propoxy-1H-quinolin-4-one]
34 | 158 to 160 °C | COc1ccc(-c2c[nH]c3c(C(=O)N(C)C)ccc(C)c3c2=O)cc1 [Example 89, 3-(4-Methoxyphenyl)-5-methyl-4-oxo-1,4-dihydroquinolin-8-carboxylic acid dimethylamide]
35 | 145 to 147 °C | CCCOc1ccc(Cl)c2[nH]cc(-c3ccc(OC)cc3)c(=O)c12 [Example 81, 8-Chloro-3-(4-methoxyphenyl)-5-propoxy-1H-quinolin-4-one]
36 | 81 to 84 °C | CCCOc1cccc2c(=O)c(-c3cccc(-c4ccc(OC)cc4OC)c3)c[nH]c12 [Example 56, 3-(2′,4′-Dimethoxybiphenyl-3-yl)-8-propoxy-1H-quinolin-4-one]
37 | 159 to 161 °C | CCCN(C)c1ccc(C)c2c(=O)c(-c3ccc(OC)cc3)c[nH]c12 [Example 72, 3-(4-Methoxyphenyl)-5-methyl-8-(methyl-propyl-amino)-1H-quinolin-4-one]
38 | 175 °C | CCCOc1cccc2c(=O)c(-c3cc(OC)ccc3OC)c[nH]c12 [Example 31, 3-(2,5-Dimethoxyphenyl)-8-propoxy-1H-quinolin-4-one]
39 | 191 to 192 °C | CCCOc1ccc(C)c2c(=O)c(-c3ccc(OC)cc3OCC)c[nH]c12 [Example 78, 3-(2-Ethoxy-4-methoxyphenyl)-5-methyl-8-propoxy-1H-quinolin-4-one]
40 | 213 to 214 °C | COc1ccc(-c2c[nH]c3c(OC(C)C)ccc(OC)c3c2=O)cc1 [Example 46, 8-Isopropoxy-5-methoxy-3-(4-methoxyphenyl)-1H-quinolin-4-one]
41 | 160 to 161 °C | CCCOc1c(F)ccc2c(=O)c(-c3ccc(OC)cc3)c[nH]c12 [Example 48, 7-Fluoro-3-(4-methoxyphenyl)-8-propoxy-1H-quinolin-4-one]
42 | 237 to 239 °C | COc1ccc(-c2c[nH]c3c(OC4CCCC4)ccc(C)c3c2=O)cc1 [Example 91, 8-Cyclopentyloxy-3-(4-methoxyphenyl)-5-methyl-1H-quinolin-4-one]
43 | 186 to 188 °C | CCCCc1ccc(C)c2c(=O)c(-c3ccc(OC)cc3)c[nH]c12 [Example 76, 8-Butyl-3-(4-methoxyphenyl)-5-methyl-1H-quinolin-4-one]
44 | 182 to 183 °C | COc1ccc(-c2c[nH]c3c(OCC4CC4)ccc(C)c3c2=O)cc1 [Example 69, 8-Cyclopropylmethoxy-3-(4-methoxyphenyl)-5-methyl-1H-quinolin-4-one]
45 | 120 to 121 °C | CCOc1cc(NC(=O)c2ccccc2)c(OCC)c2c(=O)c(-c3ccc(OC)cc3)c[nH]c12 [Example 35, N-[5,8-Diethoxy-3-(4-methoxyphenyl)-4-oxo-1,4-dihydroquinolin-6-yl]-benzamide]
46 | 182 to 183 °C | CCOc1ccc(OCC)c2c(=O)c(-c3ccc(OC)cc3)c[nH]c12 [Example 25, 5,8-Diethoxy-3-(4-methoxyphenyl)-1H-quinolin-4-one]
47 | 197 to 199 °C | COc1ccc(-c2c[nH]c3c(-c4cccs4)ccc(C)c3c2=O)cc1 [Example 100, 3-(4-Methoxyphenyl)-5-methyl-8-thiophen-2-yl-1H-quinolin-4-one]
